The test system of assay [1] is male Wistar rats with left ventricular hypertrophy induced by constriction of the abdominal aorta. Particulars: rats with aortic constriction, clofibrate 0.2% in the feed for 12 weeks, mean ± standard deviation. Here is the method:
(§1) Animal-housed male Wistar rats weighing 100-120 g were used: 5 per cage (cage size: 425 mm×266 mm×180 mm with a sawdust litter) at a temperature of […] and 50±15% humidity with a 12/12 h light/darkness cycle and with 15-20 air changes/hour. The animals were fed with LP ALTROMIN (REIPER) feed and spring water ad libitum
(§2) Left ventricular hypertrophy was induced in rats anaesthetised with Nembutal sodium, by means of constriction of the abdominal aorta with a clip (Ø0.8 mm) placed in the abdominal aorta between the diaphragm and the renal branches; one group of animals, which was then used as a control group, underwent the same operation but was not submitted to constriction of the aorta (shams).
(§3) The animals were thus randomly assigned to the following groups:
(§4) CLO: operated on with aortic constriction and treated for 12 weeks, from the day after the operation with clofibrate 0.2% in the feed (60-100 mg/kg/day (n=11).
At the end of the experiments the animals were sacrificed by means of a lethal dose of Nembutal, the abdominal cavity was opened, the organs were exteriorised in order to verify correct positioning of the aortic clip, and the heart, lungs and liver were then removed and carefully dried and weighed after macroscopic observation of any abnormalities.
The data were expressed as mean ± standard deviation and were compared using Student's t-test for independent data. […]

For assay [2] the test system is unchanged. Nature of the assay: Evaluation of cardiac function in rats with aortic constriction (left ventricular catheter). Particulars: anaesthetised rats with aortic constriction, clofibrate 0.2% in the feed for 12 weeks, mean ± standard deviation. In kind it is in vivo, rat. On the procedure:
as §1, §2, §3, §4
At the end of treatment, cardiac function was evaluated, in the animals anaesthetised with Nembutal sodium, by means of a polyethylene catheter inserted in the left ventricle via the carotid and connected up to a pressure transducer (Statham p23 XL) and to an amplifier (Biomedica Mangoni bm 61).
The parameters recorded were: heart rate, ventricular systolic and end-diastolic pressure, and the positive and negative derivatives of ventricular pressure, which were recorded on a personal computer by means of a special data acquisition system (IDAS). The measurements were taken for a period of 30 minutes.
The data were expressed as mean ± standard deviation and were compared using Student's t-test for independent data. Differences with P<0.05 were regarded as statistically significant.

Regarding `CCOC(=O)C(C)(C)Oc1ccc(Cl)cc1` [CLO, clofibrate], the “VW/BW (ventricular weight (mg) / body weight (g))” value in assay [1] was determined as 3.33 ± 0.20a. In addition, in assay [2], the “DP/dt max = positive derivative of ventricular pressure” value turned out to be 16108 ± 1115eC mm Hg/sec, the “DP/dt min = negative derivative of ventricular pressure” value was 9556 ± 560bA mm Hg/sec, the DP/dtmax/LVSP (positive derivative normalised for ventricular systolic pressure) came out at 77 ± 5 s⁻¹ and the “HR = heart rate” value stood at 401 ± 16 b/min. Besides, in assay [2], the “LDevP/HW (developed pressure normalised for ventricular weight)” value is listed as 13.3 ± 1.5aC, the LVEDP = left ventricular end-diastolic pressure amounted to 7.2 ± 1.2 mmHg, the “LVSP = left ventricular systolic pressure” value turned out to be 206 ± 5aB mm Hg and the LdevP developed pressure stood at 207 ± 7cA mm Hg.

These data come from patent US20030176499A1, “Use of fibrates for the preparation of a medicament useful in the treatment of congestive heart failure” (priority 2003, published 2003).
